According to patent US20090118286A1, “Heterobicyclic Acrylamides” (Bayer Cropscience AG, priority 2005, published 2009):

test: log P determination by HPLC (EEC Directive 79/831 Annex V.A8, gradient method); format: physicochemical; conditions: not given

Structure (SMILES) | Physical data: logP | Physical data (logP) | Physical data: log P
Cc1cn2c(/C=C/C(=O)Nc3ccc(C(F)(F)F)cc3)c(-c3ccccc3Cl)nc2s1 [Example 0879] | 3.88 |  | 
O=C(/C=C/c1c(-c2ccccc2Cl)nc2sc(C(F)(F)F)nn12)NCc1ccc(F)cc1 [Example 0191] |  | 3.7 | 
O=C(O)/C=C/c1c(-c2nccs2)nc2sc(C(F)(F)C(F)(F)F)nn12 [VA116] |  | 2.97 | 
CC(C)(C)NC(=O)/C=C/c1c(-c2ccc(F)cc2)nc2sc(C(F)(F)F)nn12 [Example 0302] |  |  | 3.81
COCc1nn2c(/C=C/C(=O)NC3CCCCC3)c(-c3ccccc3Cl)nc2s1 [Example 0832] | 3.12 |  | 
CON(C)C(=O)/C=C/c1c(-c2cccc(C(F)(F)F)c2)nc2sc(C(F)(F)F)nn12 [Example 0433] |  |  | 4.01
CC(C)NC(=O)/C=C/c1c(-c2cccc(C(F)(F)F)c2)nc2sc(C(F)(F)F)nn12 [Example 0371] |  |  | 3.85
CCCC(C)NC(=O)/C=C/c1c(-c2ccc(Cl)cc2)nc2sc(C(F)(F)F)nn12 (stereo not shown) [Example 0017] |  | 4.32 | 
CC(C)(C)c1nn2c(/C=C/C(=O)NCC(F)(F)C(F)(F)F)c(-c3ccccc3Cl)nc2s1 [Example 0814] | 4.08 |  | 
O=Cc1c(-c2nccs2)nc2sc(C(F)(F)C(F)(F)F)nn12 [IVA114] |  | 3.03 | 
CC(NC(=O)/C=C/c1c(-c2ccccc2Cl)nc2sc(-c3ccc(C(F)(F)F)cc3)nn12)C(F)(F)F (stereo not shown) [Example 0839] | 4.37 |  | 
Cc1csc2nc(-c3ccccc3Cl)c(/C=C/C(=O)NC3CC3)n12 [Example 0895] | 1.94 |  | 
COc1ccc(-c2nc3sc(C(F)(F)F)nn3c2/C=C/C(=O)NC2CCCCC2)cc1OC [Example 0659] | 3.55 |  | 
CC(C)NC(=O)/C=C/c1c(-c2ccc(Cl)cc2)nc2sc(C(F)(F)F)nn12 [Example 0007] |  | 3.61 | 
CC(NC(=O)/C=C/c1c(-c2nccs2)nc2sc(C(F)(F)C(F)(F)F)nn12)C(F)(F)F (racemic) [Example 0987] | 3.81 |  | 
CC(C)(C)c1nn2c(/C=C/C(=O)Nc3ccc(OC(F)(F)F)cc3)c(-c3ccccc3Cl)nc2s1 [Example 0812] | 5.13 |  | 
O=C(/C=C/c1c(-c2ccccc2Cl)nc2sc(C(F)(F)F)nn12)NC1CCCC1 [Example 0154] |  | 3.55 | 
O=C(/C=C/c1c(-c2ccc(F)cc2Cl)nc2sc(C(F)(F)F)nn12)NCCCC(F)(F)F [Example 0912] | 3.75 |  | 
COCc1nn2c(/C=C/C(=O)NC3CCC3)c(-c3ccccc3Cl)nc2s1 [Example 0830] | 2.59 |  | 
Cc1cn2c(/C=C/C(=O)NC3CCCC3)c(-c3ccccc3Cl)nc2s1 [Example 0875] | 2.7 |  | 
O=C(O)/C=C/c1c(-c2ccc(F)cc2Cl)nc2sc(C(F)(F)C(F)F)nn12 [VA134] |  | 3.01 | 
O=Cc1c(-c2ccccc2Cl)nc2scnn12 [IVA110] |  | 1.79 | 
O=C(/C=C/c1c(-c2ccccc2Cl)nc2sc(-c3ccc(C(F)(F)F)cc3)nn12)NC1CCCC1 [Example 0853] | 4.44 |  | 
CCN(CC)C(=O)/C=C/c1c(-c2ccc(Cl)cc2)nc2sc(C(F)(F)F)nn12 [Example 0070] |  | 4.16 | 

same assay, conditions: HPLC gradient method, acetonitrile/0.1% strength aqueous phosphoric acid or formic acid; preparation examples; read-out: log P

Structure (SMILES) | chromatographic logP
C[C@@H](C[S+](C)[O-])NC(=O)/C=C/c1c(-c2ccc(Cl)cc2Cl)nc2sc(C(F)(F)F)nn12 (stereo partly drawn) [Example 0002, (2E)-3-[6-(2,4-Dichlorophenyl)-2-(trifluoromethyl)imidazo[2,1-b][1,3,4]thiadiazol-5-yl]-N-[(1S)-1-methyl-2-(methylsulphinyl)ethyl]acrylamide] | 2.48
